Consider nine compounds from ChEMBL document CHEMBL1134746, “[3-cis-3,5-Dimethyl-(1-piperazinyl)alkyl]-bis-(4'-fluorophenyl)amine analogues as novel probes for the dopamine transporter” (Bioorg Med Chem Lett, 2001).

Bounds are passed on as bounds.

In assay [1] the test system is Mus musculus. The assay is described as follows: Tested for rate of horizontal activity during a 30-min period after administration of compound at a concentration of 50 mg/kg. It counts as functional.
Assay [2] has as its system Mus musculus. The assay is described as follows: Tested for rate of horizontal activity during a 30-min period after administration of compound at a concentration of 30 mg/kg. It counts as functional.
The test system of assay [3] is Mus musculus. The assay is described as follows: Tested for rate of horizontal activity during a 30-min period after administration of compound at a concentration of 5 mg/kg. It counts as functional.
The subject of assay [4] is Mus musculus. The assay is described as follows: Tested for rate of horizontal activity during a 30-min period after administration of compound at a concentration of 10 mg/kg. It is filed as functional.
Assay [5] concerns Mus musculus. The assay is described as follows: Tested for rate of horizontal activity during a 30-min period after administration of compound at a concentration of 100 mg/kg. It is filed as functional.
Assay [6] concerns the target Sodium-dependent serotonin transporter (Rattus norvegicus, UniProt P31652). The assay is described as follows: Binding affinity at Serotonin transporter using [3H]citalopram as radioligand from rat brain.
Assay [7] has as its system Mus musculus. The assay is described as follows: Tested for rate of horizontal activity during a 30-min period after administration of compound at a concentration of 3 mg/kg. It is filed as functional.
Assay [8] has as its target Sodium-dependent dopamine transporter (Rattus norvegicus, UniProt P23977). The assay is described as follows: Binding affinity at Dopamine transporter by displacing [3H]WIN-35428 from rat caudate putamen. It counts as tissue-based.
Assay [9] deals with Norepinephrine transporter (Rattus norvegicus, UniProt Q9WTR4). The assay is described as follows: Binding affinity at norepinephrine transporter using [3H]nisoxetine as radioligand from rat brain.
For assay [10], the system named is Monoamine transporters; Norepinephrine & dopamine (Rattus norvegicus). The assay is described as follows: Selectivity ratio of DAT to that of NET receptor.
The test system of assay [11] is Monoamine transporters; serotonin & dopamine (Rattus norvegicus). The assay is described as follows: Selectivity ratio for DAT to SERT evaluated.
Assay [12] has as its system Mus musculus. The assay is described as follows: Tested for rate of horizontal activity during a 30-min period after administration of compound at a concentration of 0.3 mg/kg. It is filed as functional.
The subject of assay [13] is Mus musculus. The assay is described as follows: Tested for rate of horizontal activity during a 30-min period after administration of compound at a concentration of 1.0 mg/kg. It is filed as functional.
The subject of assay [14] is Mus musculus. The assay is described as follows: Tested for rate of horizontal activity during a 30-min period after administration of compound at a concentration of 0.1 mg/kg. It is filed as functional.
Assay [15] is described as follows: Selectivity ratio of DAT to that of NET receptor. It counts as functional.
Assay [16] is described as follows: Selectivity ratio for DAT to SERT evaluated. It counts as functional.

Sodium-dependent serotonin transporter, sequence (P31652 whole entry): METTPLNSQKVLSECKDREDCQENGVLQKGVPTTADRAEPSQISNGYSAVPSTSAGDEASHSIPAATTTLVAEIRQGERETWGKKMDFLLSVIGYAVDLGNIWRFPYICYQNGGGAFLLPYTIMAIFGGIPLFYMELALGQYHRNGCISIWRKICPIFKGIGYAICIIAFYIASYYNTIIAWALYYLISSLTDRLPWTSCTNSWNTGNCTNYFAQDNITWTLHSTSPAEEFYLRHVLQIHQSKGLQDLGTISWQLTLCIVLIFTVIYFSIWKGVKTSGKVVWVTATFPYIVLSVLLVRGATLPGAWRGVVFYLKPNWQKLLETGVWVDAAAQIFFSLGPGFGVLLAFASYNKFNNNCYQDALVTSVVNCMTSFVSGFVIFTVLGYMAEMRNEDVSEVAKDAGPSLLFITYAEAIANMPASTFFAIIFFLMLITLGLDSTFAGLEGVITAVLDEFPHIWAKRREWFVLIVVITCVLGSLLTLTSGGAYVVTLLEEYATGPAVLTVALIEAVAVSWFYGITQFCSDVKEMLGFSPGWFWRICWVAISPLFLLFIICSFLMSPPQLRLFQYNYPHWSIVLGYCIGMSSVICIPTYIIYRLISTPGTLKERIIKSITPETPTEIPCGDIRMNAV
Sodium-dependent dopamine transporter, sequence (P23977 whole entry): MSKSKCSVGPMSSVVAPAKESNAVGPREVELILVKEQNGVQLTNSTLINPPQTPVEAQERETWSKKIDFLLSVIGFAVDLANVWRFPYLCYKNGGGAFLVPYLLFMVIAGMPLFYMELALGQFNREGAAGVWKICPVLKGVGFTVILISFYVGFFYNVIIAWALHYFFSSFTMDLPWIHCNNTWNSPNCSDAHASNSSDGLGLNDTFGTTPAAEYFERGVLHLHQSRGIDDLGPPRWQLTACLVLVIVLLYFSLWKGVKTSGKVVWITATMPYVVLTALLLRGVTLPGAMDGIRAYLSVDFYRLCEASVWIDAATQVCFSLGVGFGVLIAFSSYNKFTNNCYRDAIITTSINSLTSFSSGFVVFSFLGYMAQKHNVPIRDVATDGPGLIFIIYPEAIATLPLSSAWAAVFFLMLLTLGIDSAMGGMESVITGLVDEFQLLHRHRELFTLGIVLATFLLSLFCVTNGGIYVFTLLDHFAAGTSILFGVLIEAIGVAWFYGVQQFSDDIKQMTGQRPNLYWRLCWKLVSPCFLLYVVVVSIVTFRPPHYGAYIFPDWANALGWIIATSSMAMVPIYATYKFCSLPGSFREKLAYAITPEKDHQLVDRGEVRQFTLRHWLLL
Norepinephrine transporter, sequence (Q9WTR4 whole entry): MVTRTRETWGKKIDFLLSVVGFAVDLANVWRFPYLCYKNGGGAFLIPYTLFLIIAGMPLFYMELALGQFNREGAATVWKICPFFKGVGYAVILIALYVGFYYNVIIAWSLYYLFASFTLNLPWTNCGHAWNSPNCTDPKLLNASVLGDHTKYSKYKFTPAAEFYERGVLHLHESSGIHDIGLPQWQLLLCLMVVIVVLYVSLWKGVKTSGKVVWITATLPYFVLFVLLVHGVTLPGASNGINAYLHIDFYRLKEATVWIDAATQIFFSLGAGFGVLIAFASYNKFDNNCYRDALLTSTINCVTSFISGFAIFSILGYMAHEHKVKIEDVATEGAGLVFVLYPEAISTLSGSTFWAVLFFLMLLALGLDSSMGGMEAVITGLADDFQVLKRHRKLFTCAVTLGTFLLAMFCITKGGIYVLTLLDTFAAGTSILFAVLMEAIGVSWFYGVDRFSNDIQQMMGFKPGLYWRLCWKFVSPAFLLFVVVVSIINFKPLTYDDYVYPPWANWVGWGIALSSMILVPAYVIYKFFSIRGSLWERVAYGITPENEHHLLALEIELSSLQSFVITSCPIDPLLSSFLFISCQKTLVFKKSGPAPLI

With `COC(=O)[C@@H]1C2CC[C@@H](C[C@@H]1OC(=O)c1ccccc1)N2C` (single isomer, unassigned) [COCAINE], the Horizontal activity is recorded as 550 Counts min-1 with Mus musculus [1], 600 Counts min-1 in the assay with Mus musculus [2], 300 Counts min-1 in the assay with Mus musculus [3] and 500 Counts min-1 with Mus musculus [4].
What is called Ki is the dissociation constant of the complex between target and ligand, obtained from inhibition or displacement. A high value points to weaker binding. For the compound `CC1CN(CCCn2c3ccccc3c3ccccc32)C[C@@H](C)N1` (single isomer, unassigned) [RIMCAZOLE], the Horizontal activity with Mus musculus [2] was roughly 220 Counts min-1; with Mus musculus [5] it was roughly 0 Counts min-1; in the assay on Mus musculus [7] it was roughly 175 Counts min-1; with Mus musculus [4] it was roughly 250 Counts min-1. The affinity in assay [6], expressed as Ki, was 1710 nM.
For the compound `C[C@@H]1CN(CCCN(c2ccc(F)cc2)c2ccc(F)cc2)C[C@@H](C)N1CCc1ccc(Cl)c(Cl)c1`, the Ki in assay [8] was 131 nM; in [6], 4300 nM; in [9], greater than 100000 nM.
With `C[C@@H]1CN(CCCN(c2ccccc2)c2ccccc2)C[C@@H](C)N1CCCc1ccccc1`, the values for the Ki in [8], in assay [6] and in [9] were 61 nM, 1220 nM and 3640 nM, respectively. The values for the Ratio in assay [10] and in [11] were 60 and 20, respectively.
In the case of `C[C@@H]1CN(CCCN(c2ccccc2)c2ccccc2)C[C@@H](C)N1`, the Ki in assay [8] was found to be 813 nM; in assay [6], 70900 nM; in assay [9] it was 6810 nM. Besides, the figures for the Ratio in [10] and in assay [11] were 8 and 87, respectively.
For the compound `C[C@@H]1CN(CCCN(c2ccc(F)cc2)c2ccc(F)cc2)C[C@@H](C)N1CCCc1ccccc1`, the Horizontal activity is recorded as roughly 210 Counts min-1 in the assay with Mus musculus [12]; roughly 215 Counts min-1 in the assay on Mus musculus [2]; roughly 250 Counts min-1 in the assay on Mus musculus [13]; roughly 50 Counts min-1 in the assay on Mus musculus [5]; roughly 240 Counts min-1 in the assay with Mus musculus [7]; roughly 200 Counts min-1 in the assay with Mus musculus [14]. In the assay on Mus musculus [4], this compound had a Horizontal activity of roughly 250 Counts min-1. Moreover, the results for the Ki in assay [8], in [6] and in [9] were 17.6 nM, 2130 nM and 1020 nM, respectively. The Ratio in [10] was 60; in assay [11] it was 121.
`Fc1ccc(C(OCCN2CCN(CCCc3ccccc3)CC2)c2ccc(F)cc2)cc1` [VANOXERINE]: the Horizontal activity in the assay on Mus musculus [2] was 400 Counts min-1; with Mus musculus [5], 175 Counts min-1; in the assay with Mus musculus [7], 175 Counts min-1; in the assay on Mus musculus [4], 300 Counts min-1.
Take `C[C@@H]1CN(CCCN(c2ccccc2)c2ccccc2)C[C@@H](C)N1CCc1ccc(Cl)c(Cl)c1`: the Ratio in assay [15] was greater than 115; in assay [16], 19. The Ki was 261 nM in assay [8], 5010 nM in [6] and greater than 30000 nM in assay [9].
Take `C[C@@H]1CN(CCCN(c2ccc(F)cc2)c2ccc(F)cc2)C[C@@H](C)N1`: the figures for the Ki in [8], in assay [6] and in assay [9] were 83.2 nM, 13100 nM and 16900 nM, respectively. For the same compound, the Ratio was determined as 203 in assay [10] and 158 in assay [11].
